Calls of active or inactive are those of the source. The rule behind the calls is not given here.
Tests used:
PBMC [1] = assay: Inhibition of MCP-1 production in LPS-induced human PBMC preincubated for 1 hr followed by LPS-stimulation and measured after 20 hrs by magnetic beads technique based assay; format: functional, tissue-based; settings: time 21.0 hrs
[2] = biological target: T1, Bromodomain testis-specific protein (Homo sapiens, UniProt Q58F21); assay: Binding affinity to human partial length BRDT-BD1 (N21 to E137 residues) expressed in bacterial expression system by BROMOscan method
[3] = biological target: T1, Bromodomain testis-specific protein; assay: Binding affinity to human partial length BRDT-BD2 (K250 to E382 residues) expressed in bacterial expression system by BROMOscan method
CREB-binding protein = CREB-binding protein (Homo sapiens, UniProt Q92793); assay: Binding affinity to human partial length CREBBP (R1081 to G1197 residues) expressed in bacterial expression system by BROMOscan method
Chain of CREB-binding protein (Q92793 whole entry, the tested form may be a part): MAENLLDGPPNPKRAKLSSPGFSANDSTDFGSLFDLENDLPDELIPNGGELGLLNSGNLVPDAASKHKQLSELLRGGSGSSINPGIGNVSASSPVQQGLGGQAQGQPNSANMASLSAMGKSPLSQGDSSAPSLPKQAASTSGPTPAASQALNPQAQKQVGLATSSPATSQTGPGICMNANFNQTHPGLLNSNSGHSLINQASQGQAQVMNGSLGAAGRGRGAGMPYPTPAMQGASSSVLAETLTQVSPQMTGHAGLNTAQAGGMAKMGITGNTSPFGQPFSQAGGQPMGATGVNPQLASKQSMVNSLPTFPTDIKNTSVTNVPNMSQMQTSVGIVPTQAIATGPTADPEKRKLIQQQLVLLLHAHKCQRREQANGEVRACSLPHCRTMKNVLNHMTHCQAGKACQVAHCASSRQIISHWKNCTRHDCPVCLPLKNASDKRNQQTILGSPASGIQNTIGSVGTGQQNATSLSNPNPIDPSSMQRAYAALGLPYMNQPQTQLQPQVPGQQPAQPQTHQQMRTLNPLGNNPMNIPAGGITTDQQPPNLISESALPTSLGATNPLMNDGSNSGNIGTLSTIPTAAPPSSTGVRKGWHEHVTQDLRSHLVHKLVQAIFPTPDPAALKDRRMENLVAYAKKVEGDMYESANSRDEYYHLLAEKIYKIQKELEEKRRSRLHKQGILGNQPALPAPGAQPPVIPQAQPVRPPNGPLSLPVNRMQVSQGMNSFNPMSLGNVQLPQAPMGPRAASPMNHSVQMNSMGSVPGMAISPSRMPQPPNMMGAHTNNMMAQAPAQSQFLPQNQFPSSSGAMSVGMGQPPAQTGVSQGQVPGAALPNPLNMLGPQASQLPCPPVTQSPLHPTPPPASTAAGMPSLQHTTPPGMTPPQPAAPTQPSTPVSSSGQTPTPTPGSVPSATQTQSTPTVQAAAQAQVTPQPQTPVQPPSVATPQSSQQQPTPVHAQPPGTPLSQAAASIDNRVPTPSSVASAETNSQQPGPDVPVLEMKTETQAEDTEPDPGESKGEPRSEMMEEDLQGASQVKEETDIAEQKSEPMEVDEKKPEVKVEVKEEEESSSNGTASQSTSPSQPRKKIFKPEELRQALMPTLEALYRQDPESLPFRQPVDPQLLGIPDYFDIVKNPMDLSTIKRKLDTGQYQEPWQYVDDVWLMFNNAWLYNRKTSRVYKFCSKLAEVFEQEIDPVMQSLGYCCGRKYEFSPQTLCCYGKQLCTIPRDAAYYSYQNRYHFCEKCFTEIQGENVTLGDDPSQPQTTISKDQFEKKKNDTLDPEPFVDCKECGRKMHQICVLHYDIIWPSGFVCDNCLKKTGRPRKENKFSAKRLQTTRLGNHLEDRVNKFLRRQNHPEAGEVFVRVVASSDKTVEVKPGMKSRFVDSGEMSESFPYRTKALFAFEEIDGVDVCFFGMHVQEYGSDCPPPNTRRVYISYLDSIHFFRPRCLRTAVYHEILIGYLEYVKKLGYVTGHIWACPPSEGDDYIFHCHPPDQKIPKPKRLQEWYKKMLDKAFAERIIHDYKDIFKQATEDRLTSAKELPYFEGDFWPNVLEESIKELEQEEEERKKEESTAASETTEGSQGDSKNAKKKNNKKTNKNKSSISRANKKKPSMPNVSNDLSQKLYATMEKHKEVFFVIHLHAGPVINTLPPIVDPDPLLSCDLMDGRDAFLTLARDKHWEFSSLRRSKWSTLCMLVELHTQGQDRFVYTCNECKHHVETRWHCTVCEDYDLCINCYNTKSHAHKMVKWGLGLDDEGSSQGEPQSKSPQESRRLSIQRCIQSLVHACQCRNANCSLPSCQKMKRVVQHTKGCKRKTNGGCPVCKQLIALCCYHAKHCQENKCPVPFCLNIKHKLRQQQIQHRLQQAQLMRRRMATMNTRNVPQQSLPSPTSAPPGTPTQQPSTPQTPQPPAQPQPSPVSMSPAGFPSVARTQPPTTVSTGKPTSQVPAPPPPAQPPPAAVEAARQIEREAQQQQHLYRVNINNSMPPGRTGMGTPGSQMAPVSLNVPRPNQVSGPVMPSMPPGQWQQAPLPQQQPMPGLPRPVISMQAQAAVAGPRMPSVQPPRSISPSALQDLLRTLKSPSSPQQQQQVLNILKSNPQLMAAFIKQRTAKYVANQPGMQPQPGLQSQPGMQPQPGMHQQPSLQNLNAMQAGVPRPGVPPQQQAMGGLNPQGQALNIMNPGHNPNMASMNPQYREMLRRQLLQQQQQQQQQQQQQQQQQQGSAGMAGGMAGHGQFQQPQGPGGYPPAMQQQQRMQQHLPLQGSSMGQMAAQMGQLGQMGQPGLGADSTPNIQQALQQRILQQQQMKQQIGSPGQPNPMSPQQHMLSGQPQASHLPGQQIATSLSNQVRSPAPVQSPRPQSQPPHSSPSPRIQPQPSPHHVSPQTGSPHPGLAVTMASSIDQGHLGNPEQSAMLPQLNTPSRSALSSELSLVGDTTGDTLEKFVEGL

PBMC [4] = assay: Inhibition of IL-6 production in LPS-induced human PBMC preincubated for 1 hr followed by LPS-stimulation and measured after 20 hrs by magnetic beads technique based assay; format: functional, tissue-based; settings: time 21.0 hrs
[5] = biological target: T2, Bromodomain-containing protein 4 (Homo sapiens, UniProt O60885); assay: Inhibition of BRD4-BD1 (unknown origin)
[6] = biological target: T3, Mitogen-activated protein kinase 7 (Homo sapiens, UniProt Q13164); assay: Inhibition of ERK5 (unknown origin)
T3 sequence (Q13164 whole entry): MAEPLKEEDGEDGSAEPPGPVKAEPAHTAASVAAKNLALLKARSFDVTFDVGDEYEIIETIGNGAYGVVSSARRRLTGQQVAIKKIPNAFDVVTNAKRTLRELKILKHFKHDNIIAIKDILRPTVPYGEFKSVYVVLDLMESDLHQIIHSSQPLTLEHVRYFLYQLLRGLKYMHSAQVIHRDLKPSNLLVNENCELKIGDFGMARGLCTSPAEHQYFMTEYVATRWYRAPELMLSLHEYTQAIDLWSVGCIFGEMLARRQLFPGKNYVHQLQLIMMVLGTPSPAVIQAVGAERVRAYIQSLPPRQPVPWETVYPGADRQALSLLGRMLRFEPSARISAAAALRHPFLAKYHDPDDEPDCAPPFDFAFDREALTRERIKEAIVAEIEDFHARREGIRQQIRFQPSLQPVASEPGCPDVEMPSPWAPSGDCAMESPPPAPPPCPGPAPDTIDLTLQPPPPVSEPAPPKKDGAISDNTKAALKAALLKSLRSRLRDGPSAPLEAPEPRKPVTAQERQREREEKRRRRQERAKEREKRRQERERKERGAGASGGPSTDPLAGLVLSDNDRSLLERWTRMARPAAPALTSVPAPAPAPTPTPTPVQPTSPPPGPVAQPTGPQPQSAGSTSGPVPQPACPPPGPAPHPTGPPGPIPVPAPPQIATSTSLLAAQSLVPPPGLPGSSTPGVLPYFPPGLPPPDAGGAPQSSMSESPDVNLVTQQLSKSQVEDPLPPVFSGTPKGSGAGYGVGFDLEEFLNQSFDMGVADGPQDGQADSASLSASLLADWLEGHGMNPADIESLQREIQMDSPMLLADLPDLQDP

[7] = biological target: T2, Bromodomain-containing protein 4; assay: Binding affinity to BRD4-BD1 (unknown origin)
[8] = Dissociation constant, pKa of compound; format: physicochemical
[9] = biological target: T4, Voltage-gated inwardly rectifying potassium channel KCNH2 (Homo sapiens, UniProt Q12809); assay: Inhibition of human ERG
T4 sequence (Q12809 whole entry): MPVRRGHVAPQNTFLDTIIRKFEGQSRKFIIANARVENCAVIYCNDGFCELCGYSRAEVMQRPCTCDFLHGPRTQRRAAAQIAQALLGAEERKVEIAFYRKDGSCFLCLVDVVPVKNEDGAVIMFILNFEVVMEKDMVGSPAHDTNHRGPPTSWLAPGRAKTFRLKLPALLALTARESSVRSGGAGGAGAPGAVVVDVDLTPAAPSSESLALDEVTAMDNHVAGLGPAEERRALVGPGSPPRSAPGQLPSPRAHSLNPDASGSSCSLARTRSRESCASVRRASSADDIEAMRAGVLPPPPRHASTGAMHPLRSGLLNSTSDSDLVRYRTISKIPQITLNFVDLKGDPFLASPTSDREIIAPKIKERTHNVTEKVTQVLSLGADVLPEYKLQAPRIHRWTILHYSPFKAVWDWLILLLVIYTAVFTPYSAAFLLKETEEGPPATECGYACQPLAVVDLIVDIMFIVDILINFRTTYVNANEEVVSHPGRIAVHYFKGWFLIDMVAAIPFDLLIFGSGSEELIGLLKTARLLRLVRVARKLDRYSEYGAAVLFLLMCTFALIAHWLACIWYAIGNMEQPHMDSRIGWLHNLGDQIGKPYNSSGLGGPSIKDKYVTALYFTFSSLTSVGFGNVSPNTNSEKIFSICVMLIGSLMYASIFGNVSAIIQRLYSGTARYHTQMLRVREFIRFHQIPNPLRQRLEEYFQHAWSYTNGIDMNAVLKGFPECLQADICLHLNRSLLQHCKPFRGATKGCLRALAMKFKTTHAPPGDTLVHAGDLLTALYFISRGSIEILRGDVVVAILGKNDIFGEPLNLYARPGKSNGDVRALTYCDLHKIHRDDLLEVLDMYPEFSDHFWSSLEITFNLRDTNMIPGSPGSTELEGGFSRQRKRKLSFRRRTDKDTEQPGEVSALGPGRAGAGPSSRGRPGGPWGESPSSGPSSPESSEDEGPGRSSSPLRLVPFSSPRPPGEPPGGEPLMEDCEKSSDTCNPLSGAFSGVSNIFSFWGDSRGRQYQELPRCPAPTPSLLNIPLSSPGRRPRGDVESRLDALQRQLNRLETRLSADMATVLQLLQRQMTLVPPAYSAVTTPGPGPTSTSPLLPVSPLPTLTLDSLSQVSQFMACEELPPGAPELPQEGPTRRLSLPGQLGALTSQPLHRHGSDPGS

[10] = biological target: T3, Mitogen-activated protein kinase 7; assay: Inhibition of recombinant human ERK5 using myelin basic protein as substrate by [gamm33P]ATP based HotSpot radiometric assay
[11] = biological target: T2, Bromodomain-containing protein 4; assay: Inhibition of BRD4-BD1 (unknown origin) by TR-FRET assay
[12] = biological target: T2, Bromodomain-containing protein 4; assay: Inhibition of BRD4 in human PBMC assessed as reduction in LPS-induced TNFalpha secretion preincubated for 1 hr followed by LPS-stimulation and measured after 20 hrs by magnetic beads technique based assay
Homo sapiens [13] = species: Homo sapiens; assay: Selectivity ratio of Kd for binding affinity to human partial length EP300 (A1040 to G1161 residues) expressed in bacterial expression system to Kd for binding affinity to human partial length BRD3-BD1 (P24 to E144 residues) expressed in bacterial expression system
Mus musculus [14] = assay: Protection against imiquimod-induced Harlan Balb/c mouse model of psoriasis assessed as decrease in ear thickness at 10 mg/kg, po administered BID for 7 days measured on day 8 by dial gauge micrometer analysis; format: functional, organism-based; settings: time 7.0 day
Homo sapiens [15] = species: Homo sapiens; assay: Selectivity ratio of Kd for binding affinity to human partial length EP300 (A1040 to G1161 residues) expressed in bacterial expression system to Kd for binding affinity to human partial length BRD3-BD2 (G306 to P416 residues) expressed in bacterial expression system
Homo sapiens [16] = species: Homo sapiens; assay: Selectivity ratio of Kd for binding affinity to human partial length CREBBP (R1081 to G1197 residues) expressed in bacterial expression system to Kd for binding affinity to human partial length BRD4-BD2 (K333 to E460 residues) expressed in bacterial expression system
[17] = biological target: T5, Bromodomain-containing protein 3 (Homo sapiens, UniProt Q15059); assay: Binding affinity to human partial length BRD3-BD1 (P24 to E144 residues) expressed in bacterial expression system by BROMOscan method
T5 sequence (Q15059 whole entry, the tested form may be a part): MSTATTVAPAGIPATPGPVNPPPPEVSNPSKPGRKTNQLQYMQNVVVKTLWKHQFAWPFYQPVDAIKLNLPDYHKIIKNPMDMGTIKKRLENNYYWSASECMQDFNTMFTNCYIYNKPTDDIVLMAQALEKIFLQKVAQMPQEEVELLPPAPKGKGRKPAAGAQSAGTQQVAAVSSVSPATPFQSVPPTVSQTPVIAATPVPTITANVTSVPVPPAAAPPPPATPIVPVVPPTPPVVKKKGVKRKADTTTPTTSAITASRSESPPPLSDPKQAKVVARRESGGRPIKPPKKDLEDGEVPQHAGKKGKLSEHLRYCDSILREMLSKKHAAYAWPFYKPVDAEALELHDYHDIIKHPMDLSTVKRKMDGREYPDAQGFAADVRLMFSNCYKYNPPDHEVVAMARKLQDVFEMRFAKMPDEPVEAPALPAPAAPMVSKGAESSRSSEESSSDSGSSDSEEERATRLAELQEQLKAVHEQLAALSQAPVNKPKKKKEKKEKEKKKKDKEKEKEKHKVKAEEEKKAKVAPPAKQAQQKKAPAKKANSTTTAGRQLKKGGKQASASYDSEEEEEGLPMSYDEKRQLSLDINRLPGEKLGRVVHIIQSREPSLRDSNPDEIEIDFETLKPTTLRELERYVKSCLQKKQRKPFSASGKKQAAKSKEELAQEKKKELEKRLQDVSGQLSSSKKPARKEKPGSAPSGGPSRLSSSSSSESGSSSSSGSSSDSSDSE

Homo sapiens [18] = species: Homo sapiens; assay: Selectivity ratio of Kd for binding affinity to human partial length CREBBP (R1081 to G1197 residues) expressed in bacterial expression system to Kd for binding affinity to human partial length BRDT-BD2 (K250 to E382 residues) expressed in bacterial expression system
Homo sapiens [19] = species: Homo sapiens; assay: Selectivity ratio of Kd for binding affinity to human partial length EP300 (A1040 to G1161 residues) expressed in bacterial expression system to Kd for binding affinity to human partial length BRDT-BD2 (K250 to E382 residues) expressed in bacterial expression system
Homo sapiens [20] = species: Homo sapiens; assay: Selectivity ratio of Kd for binding affinity to human partial length EP300 (A1040 to G1161 residues) expressed in bacterial expression system to Kd for binding affinity to human partial length BRDT-BD1 (N21 to E137 residues) expressed in bacterial expression system
Homo sapiens [21] = species: Homo sapiens; assay: Selectivity ratio of Kd for binding affinity to human partial length CREBBP (R1081 to G1197 residues) expressed in bacterial expression system to Kd for binding affinity to human partial length BRD4-BD1 (N44 to E168 residues) expressed in bacterial expression system
[22] = biological target: Histone acetyltransferase p300 (Homo sapiens, UniProt Q09472); assay: Binding affinity to human partial length EP300 (A1040 to G1161 residues) expressed in bacterial expression system by BROMOscan method
Homo sapiens [23] = species: Homo sapiens; assay: Selectivity ratio of Kd for binding affinity to human partial length CREBBP (R1081 to G1197 residues) expressed in bacterial expression system to Kd for binding affinity to human partial length BRD2-BD1 (K71 to N194 residues) expressed in bacterial expression system
Homo sapiens [24] = species: Homo sapiens; assay: Selectivity ratio of Kd for binding affinity to human partial length EP300 (A1040 to G1161 residues) expressed in bacterial expression system to Kd for binding affinity to human partial length BRD2-BD2 (E348 to D455 residues) expressed in bacterial expression system
Mus musculus [25] = assay: Protection against imiquimod-induced po dosed Harlan Balb/c mouse model of psoriasis assessed as decrease in ear thickness administered BID for 7 days measured on day 8 by dial gauge micrometer analysis; format: functional, organism-based; settings: dose 3-30 mg/kg, time 7.0 day
Homo sapiens [26] = species: Homo sapiens; assay: Selectivity ratio of Kd for binding affinity to human partial length EP300 (A1040 to G1161 residues) expressed in bacterial expression system to Kd for binding affinity to human partial length BRD4-BD1 (N44 to E168 residues) expressed in bacterial expression system
[27] = Toxicity in imiquimod-induced Harlan Balb/c mouse model of psoriasis assessed as effect on body weight at 3 to 30 mg/kg, po BID for 7 days; format: organism-based; settings: in vivo, 168 h, dose 3-30 mg/kg, time 7 day
[28] = biological target: T6, Bromodomain-containing protein 2 (Homo sapiens, UniProt P25440); assay: Binding affinity to human partial length BRD2-BD1 (K71 to N194 residues) expressed in bacterial expression system by BROMOscan method
Homo sapiens [29] = species: Homo sapiens; assay: Selectivity ratio of Kd for binding affinity to human partial length EP300 (A1040 to G1161 residues) expressed in bacterial expression system to Kd for binding affinity to human partial length BRD2-BD1 (K71 to N194 residues) expressed in bacterial expression system
[30] = biological target: T6, Bromodomain-containing protein 2; assay: Binding affinity to human partial length BRD2-BD2 (E348 to D455 residues) expressed in bacterial expression system by BROMOscan method
Homo sapiens [31] = species: Homo sapiens; assay: Selectivity ratio of Kd for binding affinity to human partial length CREBBP (R1081 to G1197 residues) expressed in bacterial expression system to Kd for binding affinity to human partial length BRD3-BD1 (P24 to E144 residues) expressed in bacterial expression system
[32] = biological target: T5, Bromodomain-containing protein 3; assay: Binding affinity to human partial length BRD3-BD2 (G306 to P416 residues) expressed in bacterial expression system by BROMOscan method
Homo sapiens [33] = species: Homo sapiens; assay: Selectivity ratio of Kd for binding affinity to human partial length EP300 (A1040 to G1161 residues) expressed in bacterial expression system to Kd for binding affinity to human partial length BRD4-BD2 (K333 to E460 residues) expressed in bacterial expression system
Homo sapiens [34] = species: Homo sapiens; assay: Selectivity ratio of Kd for binding affinity to human partial length CREBBP (R1081 to G1197 residues) expressed in bacterial expression system to Kd for binding affinity to human partial length BRD2-BD2 (E348 to D455 residues) expressed in bacterial expression system
Homo sapiens [35] = species: Homo sapiens; assay: Selectivity ratio of Kd for binding affinity to human partial length CREBBP (R1081 to G1197 residues) expressed in bacterial expression system to Kd for binding affinity to human partial length BRD3-BD2 (G306 to P416 residues) expressed in bacterial expression system
[36] = biological target: T4, Voltage-gated inwardly rectifying potassium channel KCNH2; assay: Inhibition of human ERG stably expressed in CHO cells at holding potential of -80 mV incubated for 12 mins
[37] = biological target: T2, Bromodomain-containing protein 4; assay: Binding affinity to human partial length BRD4-BD1 (N44 to E168 residues) expressed in bacterial expression system by BROMOscan method
[38] = biological target: T2, Bromodomain-containing protein 4; assay: Binding affinity to human partial length BRD4-BD2 (K333 to E460 residues) expressed in bacterial expression system by BROMOscan method
[39] = Stability of compound in human liver microsomes assessed as parent compound remaining after 1 hr
Homo sapiens [40] = species: Homo sapiens; assay: Selectivity ratio of Kd for binding affinity to human partial length CREBBP (R1081 to G1197 residues) expressed in bacterial expression system to Kd for binding affinity to human partial length BRDT-BD1 (N21 to E137 residues) expressed in bacterial expression system

With `CCNC(=O)C[C@@H]1N=C(c2ccc(Cl)cc2)c2cc(OC)ccc2-n2c(C)nnc21` [MOLIBRESIB] the inhibition (PBMC [1]) was “Active”, the Kd [2] was 0.112 µM and the Kd [3] was 0.06 µM. The Kd (CREB-binding protein) was 83 µM and the inhibition (PBMC [4]) was “Active”.

With `CCOc1cc(C(=O)N2CCC(N3CCCC3)CC2)ccc1Nc1cc2c(cn1)N(C)C(=O)c1ccccc1N2C` the IC50 [5] was 1.29 µM, the inhibition (PBMC [1]) was “Active” and the IC50 [6] was 0.011 µM. The Kd [7] was 0.022 µM, the pKa [8] was 9.7 and the inhibition (PBMC [4]) was “Active”. The IC50 [9] was 0.32 µM.

In the case of `CN1C(=O)c2ccccc2N(C)c2cc(N[C@H]3CC[C@H](O)CC3)ncc21`, the IC50 [10] is reported as 0.089 µM, the inhibition (PBMC [1]) is reported as “Active” and the IC50 [6] is reported as 0.089 µM. For the same compound, the Kd [7] was 0.13 µM, the IC50 [11] was 5.99 µM and the EC50 [12] was 2.11 µM. The pKa [8] was 5.06, the inhibition (PBMC [4]) was “Active” and the IC50 [9] was > 10 µM.

With `CN1C(=O)c2ccccc2Sc2cc(N[C@H]3CC[C@H](O)CC3)ncc21` the inhibition (PBMC [1]) was “Active”, the IC50 [11] was > 30 µM and the inhibition (PBMC [4]) was “Active”.

With `CCO[C@@H]1CCCC[C@@H]1Nc1cc2c(cn1)N(C)C(=O)c1ccccc1N2C` (relative stereo) the IC50 [10] was > 10 µM, the inhibition (PBMC [1]) was “Active” and the IC50 [11] was 15.4 µM. The EC50 [12] was 2.95 µM and the inhibition (PBMC [4]) was “Active”.

In the case of `CN1C(=O)c2c(F)cccc2Oc2cc(N[C@H]3CC[C@H](O)CC3)ncc21`, the IC50 [10] is reported as 0.131 µM, the Selectivity ratio (Homo sapiens [13]) is reported as 20 and the Activity (Mus musculus [14]) is reported as “Active”. For the same compound, the Selectivity ratio (Homo sapiens [15]) was 20, the Selectivity ratio (Homo sapiens [16]) was 20 and the Kd [17] was 0.052 µM. The Selectivity ratio (Homo sapiens [18]) was 20, the Selectivity ratio (Homo sapiens [19]) was 20 and the Selectivity ratio (Homo sapiens [20]) was 20. The inhibition (PBMC [1]) was “Active”, the Selectivity ratio (Homo sapiens [21]) was 20 and the Kd [2] was 0.17 µM. For the same compound, the Kd [22] was 1.2 µM, the Selectivity ratio (Homo sapiens [23]) was 20 and the Selectivity ratio (Homo sapiens [24]) was 20. For the same compound, the Activity (Mus musculus [25]) was “Dose-dependent effect”, the Selectivity ratio (Homo sapiens [26]) was 20 and the IC50 [11] was 1.27 µM. The EC50 [12] was 0.44 µM, the Activity [27] was “Non-Toxic” and the Kd [28] was 0.071 µM. It also gave a Selectivity ratio (Homo sapiens [29]) of 20, a Kd [30] of 0.16 µM and a Selectivity ratio (Homo sapiens [31]) of 20. The Kd [32] was 0.14 µM, the Selectivity ratio (Homo sapiens [33]) was 20 and the Kd [3] was 0.22 µM. The Selectivity ratio (Homo sapiens [34]) was 20, the Selectivity ratio (Homo sapiens [35]) was 20 and the IC50 [36] was > 10 µM. The Kd [37] was 0.078 µM, the Kd (CREB-binding protein) was 1.9 µM and the inhibition (PBMC [4]) was “Active”. The Kd [38] was 0.072 µM, the remaining at 1 h [39] was 100% and the Selectivity ratio (Homo sapiens [40]) was 20.

In the case of `CN1C(=O)c2ccccc2Oc2cc(N[C@H]3CC[C@H](O)CC3)ncc21`, the IC50 [10] is reported as 0.266 µM, the inhibition (PBMC [1]) is reported as “Active” and the IC50 [11] is reported as 9.37 µM. The EC50 [12] was 2.7 µM, the IC50 [36] was > 10 µM and the inhibition (PBMC [4]) was “Active”. The remaining at 1 h [39] was 97%.

For `CCO[C@H]1CC[C@H](Nc2cc3c(cn2)N(C)C(=O)c2ccccc2N3C)CC1`, the IC50 [10] was 0.081 µM, the inhibition (PBMC [1]) was “Active” and the IC50 [11] was 9.99 µM. For the same compound, the EC50 [12] was 2.74 µM and the inhibition (PBMC [4]) was “Active”.
